# According to patent US20090215783A1, “COMPOSITION FOR INDUCTION OR INHIBITION OF STEM CELL DIFFERENTIATION” (CHOONGWAE PHARMA CORPORATION, priority 2006, published 2009):
# Columns and labels:
# [1] = test system: human bone marrow derived-mesenchymal stem cells (hBMMSC); assay: Osteogenesis modulating activity assay by test compound alone (ALP activity); format: cell-based; details: Homo sapiens, 168 h; hBMMSC, 20 μM test compound alone, six to seven days; read-out: Osteogenesis: fold change of ALP activity compared with DMSO control
# Description: Cell culture: Human bone marrow derived-mesenchymal stem cells (hBMMSC) were isolated from normal subjects.
# Osteogenesis modulating activity assay by test compound alone: hBMMSC were cultivated in the culture medium and cells were seeded into 96-well culture plates and test compounds were dissolved in DMSO and diluted with culture media (final 0.01% DMSO) and added into the media (final concentration of test compound was 20 μM) and cultured in the CO2 incubator (37° C., 5% CO2). Culture medium was changed every two days with fresh one and compound was treated again whenever medium was changed. Six to seven days after incubation, Alkaline phosphatase activity of cell lysates was measured by colorimetry. For the determination of mineralization within the cells, Von Kossa staining or Alizarin Red S assay was performed 10-14 days after incubation.
# [2] = test system: Mouse embryonic stem (ES) cells, TC1; assay: Cardiomyogenesis modulating activity assay (alpha-MHC promoter EGFP, embryoid bodies, FACS/fluorescence microscopy); format: cell-based; details: embryoid bodies treated for 5 days, FACS
# Description: a. Cell culture: Mouse embryonic stem (ES) cells, TC1 derived from 129/S6 strain were cultured on irradiated feeder layer in the culture medium which is high-glucose DMEM (Gibco) BRL, Germany) supplemented with 15% FBS (Hyclone), 0.1 mM beta-mercaptoethanol, […] sodium pyruvate, 1 mM L-glutamine and 1× non-essential amino acids.
# b. Establishment of alpha-MHC stably transformed ES cell line: A construct (FIG. 8) containing 1.8 kb promoter sequence of the mouse alpha-MHC gene between EcoRI and SalI sites of pEGFP-1 (Clontech Laboratories, Inc, CA, USA) was linearized at XhoI site, and was introduced into mouse ES cells, TC1, using the Gene Pulser II (BioRad, MA). A selection medium containing G418 was applied for two weeks from 24 hours after electroporation. The selected ES cell clones were harvested and expanded on the feeder cell layer. The green fluorescence-expressing clones when differentiated into cardiomyocytes were used in this experiment.
# c. Cardiomyogenesis modulating activity assay: Embryoid body (EB) was formed by hanging drop culture using about a number of 600 (six hundred) ES cells for two days and it was further expanded by culturing in suspension condition on a Petri-dish for another two days. Then each EB was plated on a well of 96 well culture plates. Test compounds were dissolved in DMSO and diluted with culture media (final 0.05% DMSO) and EB was treated with test compound for 5 days. Culture medium was changed every three days after plating. Expression level of EGFP was measured with FACS (Beckman). For FACS analysis, differentiating cells were dissociated with trypsin. For the determination of the extent of differentiation, EB was observed and photographed with an inverted fluorescence microscope (Zeiss, Germany). Number of beating EBs was counted under the microscope and recorded once daily.
Compound,fold induction at 20 µM [1],Cardiomyogenesis: fold change of EGFP expression level compared with DMSO control [2] [fold]
C=CCN1CC(=O)N2[C@@H](Cc3ccc(OCc4ccccc4)cc3)C(=O)N(Cc3ccc(F)cc3)C[C@@H]2N1C(=O)NCc1ccccc1 [#83],0.36,2.02
C=CCN1CC(=O)N2[C@@H](Cc3ccc(C)cc3)C(=O)N(Cc3ccc(F)cc3)C[C@@H]2N1C(=O)NCc1ccccc1 [#84],0.69,1.32
C=CCN1CC(=O)N2[C@@H](Cc3ccc(F)cc3)C(=O)N(Cc3ccc(F)cc3)C[C@@H]2N1C(=O)NCc1ccccc1 [#85],0.62,1.65
C=CCN1CC(=O)N2[C@@H](CC(C)C)C(=O)N(CCc3ccccc3)C[C@@H]2N1C(=O)NCc1ccccc1 [#86],0.54,1.34
C=CCN1CC(=O)N2[C@@H](Cc3ccccc3)C(=O)N(CCc3ccccc3)C[C@@H]2N1C(=O)NCc1ccccc1 [#87],0.59,0.89
C=CCN1CC(=O)N2C(CC(=O)O)C(=O)N(CCc3ccccc3)C[C@@H]2N1C(=O)NCc1ccccc1 (some centres unmarked) [#88],0.64,1.34
C=CCN1CC(=O)N2C(CN(CCc3ccccc3)C(=O)[C@@H]2CCC(=O)O)N1C(=O)NCc1ccccc1 (some centres unmarked) [#89],1.16,1.26
C=CCN1CC(=O)N2[C@@H](c3ccccc3)C(=O)N(CCc3ccccc3)C[C@@H]2N1C(=O)NCc1ccccc1 [#90],0.51,2.10
C=CCOC(=O)NCCC[C@@H]1C(=O)N(CCc2ccccc2)C[C@H]2N1C(=O)CN(CC=C)N2C(=O)NCc1ccccc1 [#91],1.13,2.23
CCCN1CC(=O)N2C(Cc3ccc(O)cc3)C(=O)N(CCC(C)C)CC2N1C(=O)NCc1ccccc1 (centres unmarked) [#92],0.7,2.13
CCCN1CC(=O)N2C(CN(CCC(C)C)C(=O)[C@@H]2CC(C)C)N1C(=O)NCc1ccccc1 (some centres unmarked) [#93],0.63,0.57
CCCN1CC(=O)N2C(CC(=O)O)C(=O)N(CCC(C)C)C[C@H]2N1C(=O)NCc1ccccc1 (some centres unmarked) [#94],0.69,3.02
CCCN1CC(=O)N2C(CN(CCC(C)C)C(=O)[C@@H]2CCC(=O)O)N1C(=O)NCc1ccccc1 (some centres unmarked) [#95],1.19,2.22
CCCCNC(=O)N1[C@H]2CN(CCc3ccc(OC)cc3)C(=O)[C@H](Cc3ccc(O)cc3)N2C(=O)CN1Cc1ccc(C)cc1 [#96],0.77,0.54
CCCCNC(=O)N1[C@H]2CN(CCc3ccc(OC)cc3)C(=O)[C@H](CC(C)C)N2C(=O)CN1Cc1ccc(C)cc1 [#97],0.54,0.71
CCCCNC(=O)N1C2CN(CCc3ccc(OC)cc3)C(=O)[C@H](CC(=O)O)N2C(=O)CN1Cc1ccc(C)cc1 (some centres unmarked) [#98],0.26,3.34
CN1C(=O)N2[C@@H](Cc3ccc(O)cc3)C(=O)N(CCc3ccc(F)cc3)C[C@@H]2N1C(=O)NCc1ccccc1 [#99],0.46,1.74
CN1C(=O)N2[C@@H](Cc3ccc(O)cc3)C(=O)N(Cc3cccc4ccccc34)C[C@@H]2N1C(=O)NCc1ccccc1 [#100],1.11,1.35
CCC(C)[C@H]1C(=O)N(CC2CCCCC2)C[C@H]2N1C(=O)N(C)N2C(=O)NCc1ccccc1 (some centres unmarked) [#101],1.28,2.32
